ChEMBL document CHEMBL1201862, “PubChem BioAssay data set” (2004)
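Each compound was tested at five concentrations against cells in 96-well plates for 48 hours. Here, GI50 denotes the concentration required for 50% inhibition of growth.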 Active and inactive are the calls of the source. Cut-off read from the data, not from the text of the source: active = GI50 up to about 1.1 µM and inactive = higher.

What was measured:
Assay in all cases: DTP human tumour cell line panel, 48 h
[1] = tested on: A498
[2] = tested on: A549
[3] = tested on: CAKI-1
[4] = tested on: EKVX
[5] = tested on: HL-60
[6] = tested on: Hs-578T
[7] = tested on: IGROV-1
[8] = tested on: K562
[9] = tested on: NCI-H226
[10] = tested on: NCI-H23
[11] = tested on: OVCAR-3
[12] = tested on: SK-MEL-5
[13] = tested on: SNB-75
[14] = tested on: TK-10
[15] = tested on: UACC-62
[16] = tested on: UO-31
[17] = tested on: COLO 205
[18] = tested on: MDA-N
[19] = tested on: NCI-H522

COc1ccc(C2C3=C(CCCC3=O)N(c3ccccc3)C3=C2C(=O)CCC3)cc1
GI50 [1]: > 100 µM (inactive)
GI50 [2]: > 100 µM (inactive)
GI50 [3]: > 100 µM (inactive)
GI50 [4]: > 100 µM (inactive)
GI50 [5]: > 100 µM (inactive)
GI50 [6]: 43.2 µM (inactive)
GI50 [7]: > 100 µM (inactive)
GI50 [8]: > 100 µM (inactive)
GI50 [9]: 21.6 µM (inactive)
GI50 [10]: > 100 µM (inactive)
GI50 [11]: 89.7 µM (inactive)
GI50 [12]: > 10 µM (inactive)
GI50 [13]: 28.2 µM (inactive)
GI50 [14]: > 100 µM (inactive)
GI50 [15]: 87.1 µM (inactive)
GI50 [16]: > 100 µM (inactive)

Cc1ccsc1/C=N/Nc1cnccn1
GI50 [1]: 62.4 µM (inactive)
GI50 [2]: > 100 µM (inactive)
GI50 [3]: > 100 µM (inactive)
GI50 [17]: > 100 µM (inactive)
GI50 [4]: 63.5 µM (inactive)
GI50 [5]: 35.9 µM (inactive)
GI50 [6]: > 100 µM (inactive)
GI50 [7]: 40.1 µM (inactive)
GI50 [8]: > 100 µM (inactive)
GI50 [9]: > 100 µM (inactive)
GI50 [10]: > 100 µM (inactive)
GI50 [11]: > 100 µM (inactive)
GI50 [12]: > 100 µM (inactive)
GI50 [13]: > 100 µM (inactive)
GI50 [14]: > 100 µM (inactive)
GI50 [15]: > 100 µM (inactive)
GI50 [16]: > 100 µM (inactive)

CC1(C)OCC2OC3([C@H]4OC(C)(C)O[C@@H]4CO)OC(C)(C)OC3C2O1 (stereo partly specified)
GI50 [1]: > 100 µM (inactive)
GI50 [2]: > 100 µM (inactive)
GI50 [3]: > 100 µM (inactive)
GI50 [17]: > 100 µM (inactive)
GI50 [4]: > 100 µM (inactive)
GI50 [7]: > 100 µM (inactive)
GI50 [8]: > 100 µM (inactive)
GI50 [18]: > 100 µM (inactive)
GI50 [9]: > 100 µM (inactive)
GI50 [10]: > 100 µM (inactive)
GI50 [11]: > 100 µM (inactive)
GI50 [12]: > 100 µM (inactive)
GI50 [13]: > 100 µM (inactive)
GI50 [15]: > 100 µM (inactive)
GI50 [16]: > 100 µM (inactive)

COC(=O)c1cc(Br)c(C(=O)C(Cl)(Cl)Cl)[nH]1
GI50 [1]: > 100 µM (inactive)
GI50 [2]: > 100 µM (inactive)
GI50 [3]: > 100 µM (inactive)
GI50 [17]: > 100 µM (inactive)
GI50 [4]: > 100 µM (inactive)
GI50 [5]: > 100 µM (inactive)
GI50 [7]: > 100 µM (inactive)
GI50 [8]: > 100 µM (inactive)
GI50 [18]: > 100 µM (inactive)
GI50 [9]: > 100 µM (inactive)
GI50 [10]: > 100 µM (inactive)
GI50 [19]: > 100 µM (inactive)
GI50 [11]: > 100 µM (inactive)
GI50 [12]: > 100 µM (inactive)
GI50 [13]: > 100 µM (inactive)
GI50 [14]: > 100 µM (inactive)
GI50 [15]: > 100 µM (inactive)
GI50 [16]: > 100 µM (inactive)

C[C@@H]1CC[C@@H]2[C@@H](C1)O[C@@H]([C@@H](C)OCc1ccccc1)SC2(C)C
GI50 [1]: 17.3 µM (inactive)
GI50 [2]: 29.9 µM (inactive)
GI50 [3]: 14.9 µM (inactive)
GI50 [17]: 17.6 µM (inactive)
GI50 [4]: 31.8 µM (inactive)
GI50 [7]: 23.1 µM (inactive)
GI50 [8]: 18.1 µM (inactive)
GI50 [18]: 18.4 µM (inactive)
GI50 [9]: 19.4 µM (inactive)
GI50 [10]: 21.7 µM (inactive)
GI50 [19]: 14.8 µM (inactive)
GI50 [12]: 16.3 µM (inactive)
GI50 [13]: 16.2 µM (inactive)
GI50 [14]: 21.7 µM (inactive)
GI50 [15]: 19.3 µM (inactive)
GI50 [16]: 16.4 µM (inactive)

O=c1onc2c3ccccc3ncn12
GI50 [1]: > 100 µM (inactive)
GI50 [2]: > 100 µM (inactive)
GI50 [3]: > 100 µM (inactive)
GI50 [17]: > 100 µM (inactive)
GI50 [4]: > 100 µM (inactive)
GI50 [6]: > 100 µM (inactive)
GI50 [7]: > 100 µM (inactive)
GI50 [8]: > 100 µM (inactive)
GI50 [9]: > 100 µM (inactive)
GI50 [10]: > 100 µM (inactive)
GI50 [19]: > 100 µM (inactive)
GI50 [11]: > 100 µM (inactive)
GI50 [12]: > 100 µM (inactive)
GI50 [13]: > 100 µM (inactive)
GI50 [14]: > 100 µM (inactive)
GI50 [15]: > 100 µM (inactive)
GI50 [16]: > 100 µM (inactive)

NNC(=O)CNC(=O)CSc1nnc(COc2ccc(Cl)cc2)n1-c1ccccc1
GI50 [1]: > 100 µM (inactive)
GI50 [2]: > 100 µM (inactive)
GI50 [3]: > 100 µM (inactive)
GI50 [17]: > 100 µM (inactive)
GI50 [4]: > 100 µM (inactive)
GI50 [5]: > 100 µM (inactive)
GI50 [7]: > 100 µM (inactive)
GI50 [8]: > 100 µM (inactive)
GI50 [18]: > 100 µM (inactive)
GI50 [9]: > 100 µM (inactive)
GI50 [10]: > 100 µM (inactive)
GI50 [19]: 41.8 µM (inactive)
GI50 [11]: > 100 µM (inactive)
GI50 [13]: > 100 µM (inactive)
GI50 [14]: > 100 µM (inactive)
GI50 [15]: > 100 µM (inactive)
GI50 [16]: > 100 µM (inactive)

O=C1CCCC1CC(CN1CCOCC1)Sc1nnnn1-c1ccccc1 (stereo unspecified)
GI50 [1]: > 100 µM (inactive)
GI50 [2]: > 100 µM (inactive)
GI50 [3]: 16.8 µM (inactive)
GI50 [17]: 16.6 µM (inactive)
GI50 [4]: 28.9 µM (inactive)
GI50 [5]: 16.7 µM (inactive)
GI50 [7]: > 100 µM (inactive)
GI50 [8]: > 100 µM (inactive)
GI50 [18]: > 100 µM (inactive)
GI50 [9]: > 100 µM (inactive)
GI50 [10]: > 100 µM (inactive)
GI50 [19]: > 100 µM (inactive)
GI50 [11]: > 100 µM (inactive)
GI50 [12]: > 100 µM (inactive)
GI50 [13]: 21.3 µM (inactive)
GI50 [15]: > 100 µM (inactive)
GI50 [16]: 96.8 µM (inactive)

CCN(CC)CCNC(=O)c1cc2cc(NC(=O)c3cc4cc(NC(=O)c5cc6cc([N+](=O)[O-])ccc6[nH]5)ccc4[nH]3)ccc2[nH]1
GI50 [1]: > 100 µM (inactive)
GI50 [2]: > 100 µM (inactive)
GI50 [3]: > 100 µM (inactive)
GI50 [17]: > 100 µM (inactive)
GI50 [4]: > 100 µM (inactive)
GI50 [6]: > 100 µM (inactive)
GI50 [7]: > 100 µM (inactive)
GI50 [8]: > 100 µM (inactive)
GI50 [9]: > 100 µM (inactive)
GI50 [10]: > 100 µM (inactive)
GI50 [19]: > 100 µM (inactive)
GI50 [11]: > 100 µM (inactive)
GI50 [12]: > 100 µM (inactive)
GI50 [13]: > 100 µM (inactive)
GI50 [14]: > 100 µM (inactive)
GI50 [15]: > 100 µM (inactive)
GI50 [16]: > 100 µM (inactive)

COc1ccc(-c2c(C(C)=O)c(-c3ccccc3)n(C3OC(COC(C)=O)C(OC(C)=O)C(OC(C)=O)C3OC(C)=O)c(=S)c2C#N)cc1 (stereo unspecified)
GI50 [1]: > 100 µM (inactive)
GI50 [2]: > 100 µM (inactive)
GI50 [3]: > 100 µM (inactive)
GI50 [17]: > 100 µM (inactive)
GI50 [4]: > 100 µM (inactive)
GI50 [5]: > 100 µM (inactive)
GI50 [7]: > 100 µM (inactive)
GI50 [8]: > 100 µM (inactive)
GI50 [18]: > 100 µM (inactive)
GI50 [9]: > 100 µM (inactive)
GI50 [10]: > 100 µM (inactive)
GI50 [19]: > 100 µM (inactive)
GI50 [11]: > 100 µM (inactive)
GI50 [12]: > 100 µM (inactive)
GI50 [13]: 80.9 µM (inactive)
GI50 [14]: > 100 µM (inactive)
GI50 [15]: > 100 µM (inactive)

Nc1nc(-c2ccccc2/N=N/N2CCCC2)nc2ccccc12
GI50 [1]: 7.76 µM (inactive)
GI50 [2]: 2.62 µM (inactive)
GI50 [3]: 4.14 µM (inactive)
GI50 [17]: 2.56 µM (inactive)
GI50 [4]: 10.8 µM (inactive)
GI50 [6]: 3.39 µM (inactive)
GI50 [7]: 2.91 µM (inactive)
GI50 [8]: 3.05 µM (inactive)
GI50 [9]: 2.22 µM (inactive)
GI50 [10]: 2.2 µM (inactive)
GI50 [19]: 4.28 µM (inactive)
GI50 [11]: 1.85 µM (inactive)
GI50 [12]: 4.5 µM (inactive)
GI50 [13]: 11.5 µM (inactive)
GI50 [14]: 3.63 µM (inactive)
GI50 [15]: 1.77 µM (inactive)
GI50 [16]: 1.57 µM (inactive)

CC1=C(/C=C/C(C)=C/C=C/C(C)=C/CO)C(C)(C)CCC1 [RETINOL]
GI50 [1]: 18.3 µM (inactive)
GI50 [2]: 19.1 µM (inactive)
GI50 [3]: 42 µM (inactive)
GI50 [17]: 19.1 µM (inactive)
GI50 [4]: 27.1 µM (inactive)
GI50 [5]: 23.4 µM (inactive)
GI50 [7]: 29.2 µM (inactive)
GI50 [8]: 26.5 µM (inactive)
GI50 [18]: 36.5 µM (inactive)
GI50 [9]: 20.7 µM (inactive)
GI50 [10]: 21.8 µM (inactive)
GI50 [19]: 25.5 µM (inactive)
GI50 [11]: 14.3 µM (inactive)
GI50 [12]: 17.1 µM (inactive)
GI50 [13]: 0.0279 µM (active)
GI50 [15]: 19.5 µM (inactive)
GI50 [16]: 17.7 µM (inactive)
